# PubChem BioAssay AID2060489 (Molecular Pharmacology Branch, DTP, NCI, 2025)
# System: 922993-354-T-J3-PDC complex spheroids, viability
# Assay: Anticancer human tumor 922993-354-T-J3-PDC patient-derived endometrial carcinoma cell line growth inhibition [GQUAD]
# Settings: for IC50: curve of first compound; for viability, T/C: stronger effect = lower value
# Procedure, shortened: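 Tumor cells were grown as complex spheroids with HUVEC endothelial cells and mesenchymal stem cells as stroma. G-quadruplex stabilizers were combined with targeted agents over half-log dilutions from near the clinical Cmax, or from 10 microM.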
# [1] = second compound 0.0316 µM, first compound 0.0316 µM
# [2] = second compound 0.0316 µM, first compound 0.1 µM
# [3] = second compound 0.0316 µM, first compound 0.316 µM
# [4] = second compound 0.0316 µM, first compound 1 µM
# [5] = second compound 0.0316 µM, first compound 3.16 µM
# [6] = second compound 0.0316 µM, first compound 10 µM
# [7] = second compound 0.1 µM, first compound 0.0316 µM
# [8] = second compound 0.1 µM, first compound 0.1 µM
# [9] = second compound 0.1 µM, first compound 0.316 µM
# [10] = second compound 0.1 µM, first compound 1 µM
# [11] = second compound 0.1 µM, first compound 3.16 µM
# [12] = second compound 0.1 µM, first compound 10 µM
# [13] = second compound 0.316 µM, first compound 0.0316 µM
# [14] = second compound 0.316 µM, first compound 0.1 µM
# [15] = second compound 0.316 µM, first compound 0.316 µM
# [16] = second compound 0.316 µM, first compound 1 µM
# [17] = second compound 0.316 µM, first compound 3.16 µM
# [18] = second compound 0.316 µM, first compound 10 µM
# [19] = second compound 1 µM, first compound 0.0316 µM
# [20] = second compound 1 µM, first compound 0.1 µM
# [21] = second compound 1 µM, first compound 0.316 µM
# [22] = second compound 1 µM, first compound 1 µM
# [23] = second compound 1 µM, first compound 3.16 µM
# [24] = second compound 1 µM, first compound 10 µM
# [25] = second compound 3.16 µM, first compound 0.0316 µM
# [26] = second compound 3.16 µM, first compound 0.1 µM
# [27] = second compound 3.16 µM, first compound 0.316 µM
# [28] = second compound 3.16 µM, first compound 1 µM
# [29] = second compound 3.16 µM, first compound 3.16 µM
# [30] = second compound 3.16 µM, first compound 10 µM
# [31] = second compound 10 µM, first compound 0.0316 µM
# [32] = second compound 10 µM, first compound 0.1 µM
# [33] = second compound 10 µM, first compound 0.316 µM
# [34] = second compound 10 µM, first compound 1 µM
# [35] = second compound 10 µM, first compound 3.16 µM
# [36] = second compound 10 µM, first compound 10 µM
# 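Note: spheroids exposed to compounds for seven days.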
# 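Throughout, for viability, T/C: 100% = DMSO vehicle control viability.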
structure (smiles),measurement,setting,value
CC1COCCN1c1cc(C2(O)CC3CCC(C2)O3)c2cnn(-c3ccn[nH]3)c2n1 (stereo not drawn) + Cc1cnc(CNC(=O)c2c(=O)c3ccc(N4CCCN(C)CC4)nc3n3c2sc2ccccc23)cn1,IC50,second compound 0.0316 µM,0.214 µM
same,IC50,second compound 0.1 µM,0.0861 µM
same,IC50,second compound 0.316 µM,< 0.0316 µM
same,IC50,second compound 1 µM,< 0.0316 µM
same,IC50,second compound 3.16 µM,< 0.0316 µM
same,IC50,second compound 10 µM,< 0.0316 µM
same,"viability, T/C",[1],79.9%
same,"viability, T/C",[2],64.3%
same,"viability, T/C",[3],40.1%
same,"viability, T/C",[4],32.2%
same,"viability, T/C",[5],28.6%
same,"viability, T/C",[6],18.2%
same,"viability, T/C",[7],68.8%
same,"viability, T/C",[8],43.1%
same,"viability, T/C",[9],40.9%
same,"viability, T/C",[10],21%
same,"viability, T/C",[11],26.6%
same,"viability, T/C",[12],16.5%
same,"viability, T/C",[13],47.4%
same,"viability, T/C",[14],46.2%
same,"viability, T/C",[15],37.1%
same,"viability, T/C",[16],23.1%
same,"viability, T/C",[17],22.1%
same,"viability, T/C",[18],12.5%
same,"viability, T/C",[19],46.2%
same,"viability, T/C",[20],43.1%
same,"viability, T/C",[21],50.8%
same,"viability, T/C",[22],34.2%
same,"viability, T/C",[23],23.3%
same,"viability, T/C",[24],4.13%
same,"viability, T/C",[25],44.8%
same,"viability, T/C",[26],44.2%
same,"viability, T/C",[27],45.2%
same,"viability, T/C",[28],29.4%
same,"viability, T/C",[29],3.29%
same,"viability, T/C",[30],0.13%
same,"viability, T/C",[31],45.5%
same,"viability, T/C",[32],37.9%
same,"viability, T/C",[33],31.4%
same,"viability, T/C",[34],14.6%
same,"viability, T/C",[35],0.21%
same,"viability, T/C",[36],0.2%
CC1COCCN1c1cc(C2(S(C)(=N)=O)CC2)nc(-c2ccnc3[nH]ccc23)n1 (stereo not drawn) + Cc1cnc(CNC(=O)c2c(=O)c3ccc(N4CCCN(C)CC4)nc3n3c2sc2ccccc23)cn1,IC50,second compound 0.0316 µM,7.86 µM
same,IC50,second compound 0.1 µM,5.47 µM
same,IC50,second compound 0.316 µM,0.172 µM
same,IC50,second compound 1 µM,> 10 µM
same,IC50,second compound 3.16 µM,> 10 µM
same,IC50,second compound 10 µM,< 0.0316 µM
same,"viability, T/C",[1],87.9%
same,"viability, T/C",[2],79.4%
same,"viability, T/C",[3],82.8%
same,"viability, T/C",[4],67.9%
same,"viability, T/C",[5],91.5%
same,"viability, T/C",[6],41.6%
same,"viability, T/C",[7],70.4%
same,"viability, T/C",[8],63.5%
same,"viability, T/C",[9],55.2%
same,"viability, T/C",[10],61%
same,"viability, T/C",[11],66%
same,"viability, T/C",[12],35.5%
same,"viability, T/C",[13],59.9%
same,"viability, T/C",[14],50.7%
same,"viability, T/C",[15],50.9%
same,"viability, T/C",[16],38.8%
same,"viability, T/C",[17],50.5%
same,"viability, T/C",[18],39.2%
same,"viability, T/C",[19],46.3%
same,"viability, T/C",[20],60.1%
same,"viability, T/C",[21],51.7%
same,"viability, T/C",[22],45.2%
same,"viability, T/C",[23],48.5%
same,"viability, T/C",[24],53.3%
same,"viability, T/C",[25],49.1%
same,"viability, T/C",[26],52.8%
same,"viability, T/C",[27],54.4%
same,"viability, T/C",[28],48%
same,"viability, T/C",[29],54.4%
same,"viability, T/C",[30],52.5%
same,"viability, T/C",[31],51.8%
same,"viability, T/C",[32],42.9%
same,"viability, T/C",[33],54%
same,"viability, T/C",[34],50.6%
same,"viability, T/C",[35],47.3%
same,"viability, T/C",[36],53.6%
COc1ccc([C@@H](O)c2cc(-c3ncnc4cc(N5CCOCC5)ccc34)c(F)cc2Cl)nn1 + Cc1cnc(CNC(=O)c2c(=O)c3ccc(N4CCCN(C)CC4)nc3n3c2sc2ccccc23)cn1,IC50,second compound 0.0316 µM,2.86 µM
same,IC50,second compound 0.1 µM,1.02 µM
same,IC50,second compound 0.316 µM,0.456 µM
same,IC50,second compound 1 µM,3.99 µM
same,IC50,second compound 3.16 µM,1.83 µM
same,IC50,second compound 10 µM,< 0.0316 µM
same,"viability, T/C",[1],84.2%
same,"viability, T/C",[2],60.5%
same,"viability, T/C",[3],88.1%
same,"viability, T/C",[4],66.6%
same,"viability, T/C",[5],49.9%
same,"viability, T/C",[6],42.9%
same,"viability, T/C",[7],79.9%
same,"viability, T/C",[8],61.7%
same,"viability, T/C",[9],67.7%
same,"viability, T/C",[10],44.3%
same,"viability, T/C",[11],44.1%
same,"viability, T/C",[12],35.6%
same,"viability, T/C",[13],66.7%
same,"viability, T/C",[14],54.3%
same,"viability, T/C",[15],48.1%
same,"viability, T/C",[16],52.6%
same,"viability, T/C",[17],45.5%
same,"viability, T/C",[18],38.1%
same,"viability, T/C",[19],57.1%
same,"viability, T/C",[20],49.5%
same,"viability, T/C",[21],56.7%
same,"viability, T/C",[22],57.7%
same,"viability, T/C",[23],58.6%
same,"viability, T/C",[24],27.1%
same,"viability, T/C",[25],51.8%
same,"viability, T/C",[26],51%
same,"viability, T/C",[27],55.7%
same,"viability, T/C",[28],52.3%
same,"viability, T/C",[29],47.8%
same,"viability, T/C",[30],14.6%
same,"viability, T/C",[31],45%
same,"viability, T/C",[32],50.7%
same,"viability, T/C",[33],46.8%
same,"viability, T/C",[34],38.6%
same,"viability, T/C",[35],30.3%
same,"viability, T/C",[36],4.3%
O=C(c1cc(Cc2n[nH]c(=O)c3ccccc23)ccc1F)N1CCN(C(=O)C2CC2)CC1 + Cc1cnc(CNC(=O)c2c(=O)c3ccc(N4CCCN(C)CC4)nc3n3c2sc2ccccc23)cn1,IC50,second compound 0.0316 µM,> 10 µM
same,IC50,second compound 0.1 µM,> 10 µM
same,IC50,second compound 0.316 µM,< 0.0316 µM
same,IC50,second compound 1 µM,< 0.0316 µM
same,IC50,second compound 3.16 µM,< 0.0316 µM
same,IC50,second compound 10 µM,3.77 µM
same,"viability, T/C",[1],79.7%
same,"viability, T/C",[2],78%
same,"viability, T/C",[3],90.8%
same,"viability, T/C",[4],92.5%
same,"viability, T/C",[5],61.2%
same,"viability, T/C",[6],75%
same,"viability, T/C",[7],74.1%
same,"viability, T/C",[8],68.3%
same,"viability, T/C",[9],64.1%
same,"viability, T/C",[10],49.1%
same,"viability, T/C",[11],54.4%
same,"viability, T/C",[12],76%
same,"viability, T/C",[13],57.4%
same,"viability, T/C",[14],46.1%
same,"viability, T/C",[15],39.4%
same,"viability, T/C",[16],42%
same,"viability, T/C",[17],50.4%
same,"viability, T/C",[18],55.3%
same,"viability, T/C",[19],50.2%
same,"viability, T/C",[20],51.7%
same,"viability, T/C",[21],37.2%
same,"viability, T/C",[22],43.5%
same,"viability, T/C",[23],48.5%
same,"viability, T/C",[24],41.1%
same,"viability, T/C",[25],43.7%
same,"viability, T/C",[26],53.4%
same,"viability, T/C",[27],53.4%
same,"viability, T/C",[28],57.7%
same,"viability, T/C",[29],51.3%
same,"viability, T/C",[30],49.8%
same,"viability, T/C",[31],42.8%
same,"viability, T/C",[32],53.4%
same,"viability, T/C",[33],60.1%
same,"viability, T/C",[34],52.8%
same,"viability, T/C",[35],52%
same,"viability, T/C",[36],39.2%
